One data set deals with T1, CDK2/cyclin A2 (Homo sapiens, UniProt P24941).
T1 construct: purchased Promega
The data set is described as follows: In vitro CDK2/cyclin A2 enzyme inhibition assay (ADP-Glo). Particulars: for Relative activity: supplement S1, DMSO = 100, screen at 50 μM; for percentage enzyme activity: at 50 μM; for IC50: n = 3, read-out: IC50 against CDK2/cyclin A2. Format: biochemical. The method, then: The studied pyrazoles 2a–g, 4, 7a–d, 8a and b, 9, and 10 were assessed for their in vitro CDK2/cyclin A2 enzyme inhibition assay at a concentration of 50 μM using the Promega CDK2/cyclinA2 kinase enzyme system coupled with the ADP-Glo assay.[32,33] The percentage enzyme activity was the lowest for five compounds, namely 4, 7a, 7d, 8a, and 9 with values of 24.7%, 17.5%, 11.5%, 27.1% and 14.5%, respectively.
The in vitro assay of CDK2/cyclin A2 protein kinase was carried out on all the synthesized compounds. The kinase assay was performed in a 96-well white plate with a reaction volume of […]. The reaction was performed in four steps as follows: 2.5 μL of the test compounds or 5% DMSO and 5 μL of CDK2/cyclin A2 enzyme (1.6 ng) was added, and then incubated at room temperature for 30 min. Then, 5 μL of 50 μM ATP. 0.1 μg μL^−1 histone H1 was added and incubated for 10 min. The reaction was stopped by adding 12.5 μL of ADP-Glo™ Reagent and incubated for 40 min. Then 25 μL of kinase detection reagent was added to each well and incubated for 60 min before detection with luminescence (Integration time 0.5–1 s).[25,32,33]
In general terms: ADP-Glo first removes unused ATP, then detects ADP through luciferase.

Another data set concerns NCI 60 cancer cell lines. The data set is described as follows: NCI 60 single dose screen, mean over full panel. The class given is cell-based, human. The settings on record: mean over NCI 60 cell lines; single dose 10 μM. The method, then:
(§1) The newly synthesized pyrazoles 2a–g, 7a–d, 8a and b, 9, and 10 were submitted to the National Cancer Institute (NCI) Developmental Therapeutics Program (http://www.dtp.nci.nih.gov) for assessment of their potential antiproliferative activity against a panel of NCI 60 cancer cell lines. All compounds were approved for screening against the approved 60 cancer cell lines at a single dose of 10 μM. The human cancer cell lines were derived from 9 variant cancer types including leukemia, melanoma, lung, colon, CNS, ovarian, renal, prostate and breast cancers. The results are presented as percentage of growth inhibition (GI%) of the screened compounds against the full panel of cell lines.
(§2) Under sterile conditions, the cell lines were grown in RPMI 1640 media (Gibco, NY, USA) supplemented with 10% fetal bovine serum (Biocell, CA, USA), and […] cell/mL was used to test the growth inhibition activity of the synthesized compounds. The compounds with concentrations ranging from 0.01 to 100 μM were prepared in phosphate buffer saline. Each compound was initially solubilized in dimethyl sulfoxide (DMSO); however, each final dilution contained less than 1% DMSO. Solutions of different concentrations (0.2 mL) were pipetted into the separate well of a microtiter tray in duplicate. Cell culture (1.8 mL) containing a cell population of […] cells per mL was pipetted into each well. Controls, containing only phosphate buffer saline and DMSO at identical dilutions, were also prepared in the same manner. These cultures were incubated in a humidified incubator at 37 °C. The incubator was supplied with 5% CO2 atmosphere. After 48 h, the cells in each well were diluted 10 times with saline and counted using a Coulter counter. The counts were corrected for the dilution.[34]

The test system of data set [1] is CDK2. The settings on record: cited from earlier work; for IC50: CDK2.
In a further data set the test system is MCF7. The data set is described as follows: NCI 60 single dose screen, Breast cancer. The class given is cell-based, human. The settings on record: single dose 10 μM. The method, then: as §1, §2
The subject of another data set is MDA-MB-468. Briefly: NCI 60 single dose screen, Breast cancer. Format: cell-based, human. Particulars: single dose 10 μM. The method, then: as §1, §2
In data set [2] the test system is CDK 1, 2, 4, 6 and 9 isoforms. Set-up: method as in PMID 18656911. The settings on record: range over CDK 1, 2, 4, 6 and 9 isoforms; cited from earlier work.
The test system of another data set is CCRF-CEM. Briefly: NCI 60 single dose screen, Leukemia. Format: cell-based, human. The settings on record: single dose 10 μM. As for the experimental part:
as §1, §2

The next data set has as its system MALME-3M. Briefly: NCI 60 single dose screen, Melanoma. The class given is cell-based, human. Particulars: single dose 10 μM. As for the experimental part:
as §1, §2

The next data set has as its system SK-MEL-2. Briefly: NCI 60 single dose screen, Melanoma. The class given is cell-based, human. The settings on record: single dose 10 μM. The method, then: as §1, §2
Another data set relates to T-47D. The data set is described as follows: NCI 60 single dose screen, Breast. The class given is cell-based, human. The settings on record: single dose 10 μM. As for the experimental part: as §1
Under sterile conditions, the cell lines were grown in RPMI 1640 media (Gibco, NY, USA) supplemented with 10% fetal bovine serum (Biocell, CA, USA), and […] cell/mL was used to test the growth inhibition activity of the synthesized compounds. The compounds with concentrations ranging from 0.01 to 100 μM were prepared in phosphate buffer saline. Each compound was initially solubilized in dimethyl sulfoxide (DMSO); however, each final dilution contained less than 1% DMSO. Solutions of different concentrations (0.2 mL) were pipetted into the separate well of a microtiter tray in duplicate. […] After 48 h, the cells in each well were diluted 10 times with saline and counted using a Coulter counter. […]

Another data set deals with HCT-116 cell line. The data set is described as follows: MTT cell viability assay. Format: cell-based. Particulars: Homo sapiens, read-out: IC50 (cytotoxicity, MTT).
Data set [3] concerns CDK2. The data set is described as follows: Western blot of CDK2 expression in HCT-116 cells. Particulars: 1 μM, 48 h, vs vehicle treated cells. Format: cell-based. The text has this: The method of sodium dodecyl sulfate polyacrylamide gel electrophoresis (SDS-PAGE) is employed to separate proteins based on their size. When combined with western blotting (immunoblotting), both techniques are commonly used to identify the presence and/or relative abundance of a specific protein within a sample containing a complex mixture of proteins.[36] In this process, each sample's total protein content is loaded onto a gel and separated by electrophoresis, allowing proteins to migrate through the gel matrix under the influence of an electric current. To facilitate protein migration, the proteins are initially denatured and given a negative charge by exposure to a detergent like SDS. A molecular weight marker with known-sized bands assists in identifying proteins of interest. […] Typically, the secondary antibody is linked to an enzyme that generates luminescence upon reacting with its substrate. The intensity of the luminescence, directly correlating with the amount of protein that interacted with the antibody, is captured by a Bio-Rad Imager.[36] […]
HCT-116 cells were treated with either 3 μM of compound 4 and 1 μM of compound 9 and incubated 48 h. The cells were lysed by 1× RIPA buffer containing protease and phosphatase inhibitors to quantify the protein concentration by BCA protein assay. […]
(In general: A western blot detects proteins with antibodies after separation by electrophoresis.)

A short description of another data set: in vitro. The settings on record: human.

One may read the melting point as the temperature, or range, at which the solid turns liquid.

Values joined by “and” are separate entries in the source; they are usually repeats but may differ in a detail not shown here. Equal values may be shown once.

Molecule `COc1ccc(NN=C2C(=O)NN=C2Nc2ccccc2)cc1` [Compound 2f, 4-(2-(4-Methoxyphenyl)hydrazono)-5-(phenylamino)-2,4-dihydro-3H-pyrazol-3-one] registered a melting point of 240 to 242 °C. This molecule also registered a Relative activity at CDK2/cyclin A2 of 62.1. In addition, the “mean GI%” value in the data set with NCI 60 cancer cell lines came to 10.24%.
`CN(C)c1ccc(C=Nc2[nH]nc(Nc3ccccc3)c2C#N)cc1` [Compound 7d, 5-((4-(Dimethylamino)benzylidene)amino)-3-(phenylamino)-1H-pyrazole-4-carbonitrile]: the melting point is 284 to 285 °C. For the same molecule, at CDK2/cyclin A2, the percentage enzyme activity was 11.5%, the IC50 was determined as 1470 nM and the Relative activity was 11.5.
Regarding `O=C1NN=C(Nc2ccccc2)C1=NNc1ccc(O)cc1` [Compound 2d, 4-(2-(4-Hydroxyphenyl)hydrazono)-5-(phenylamino)-2,4-dihydro-3H-pyrazol-3-one], the melting point was in the range of 257 to 259 °C. Moreover, the Relative activity on CDK2/cyclin A2 amounted to 40.2. In addition, the “mean GI%” value in the data set on NCI 60 cancer cell lines is on record as 27.12%.
For “4-Chloro-N-(4-cyano-3-(phenylamino)-1H-pyrazol-5-yl)benzamide [Compound 8a]”, at CDK2/cyclin A2, the percentage enzyme activity turned out to be 27.1% and the Relative activity stood at 56.4.
With `NC(=O)c1ccc(-c2ccc(F)c(C(=O)Nc3c[nH]nc3C(=O)Nc3ccc(F)cc3)c2F)cn1` [DC-K2in212 (IV)], in the data set on CDK2 [1], the IC50 was 295 nM and the “selectivity against CDK2 over CDK1” value is recorded as 17 fold.
Turning to `Cc1ccc(NN=C2C(=O)NN=C2Nc2ccccc2)cc1` [Compound 2e, 5-(Phenylamino)-4-(2-(p-tolyl)hydrazono)-2,4-dihydro-3H-pyrazol-3-one], the melting point fell in the range of 251 to 253 °C. On CDK2/cyclin A2, this molecule yielded a Relative activity of 56.6. Besides, the “mean GI%” value with NCI 60 cancer cell lines is 6.87%.
As for `N#Cc1c(Nc2ccccc2)n[nH]c1N=Cc1ccc(Cl)cc1` [Compound 7b, 5-((4-Chlorobenzylidene)amino)-3-(phenylamino)-1H-pyrazole-4-carbonitrile], the melting point was 273 to 275 °C. In addition, on CDK2/cyclin A2, the Relative activity is 70.7.
Turning to `Nc1n[nH]c(N)c1/N=N/c1ccc(O)cc1` [CAN508 (III)], the IC50 with CDK2 [1] is 350 nM.
For the molecule `O=C1NN=C(Nc2ccccc2)C1=NNc1ccc(F)cc1` [Compound 2b, 4-(2-(4-Fluorophenyl)hydrazono)-5-(phenylamino)-2,4-dihydro-3H-pyrazol-3-one], the melting point is 239 to 240 °C. The Relative activity at CDK2/cyclin A2 is listed as 55.6. In the data set on MCF7, the GI% was determined as 86.1%. The GI% with MDA-MB-468 was found to be 72.25%.
In turn, `O=C1NN=C(Nc2ccccc2)C1=NNc1ccc(Cl)cc1` [Compound 2c, 4-(2-(4-Chlorophenyl)hydrazono)-5-(phenylamino)-2,4-dihydro-3H-pyrazol-3-one] showed a melting point of 249 to 251 °C. Further, the Relative activity at CDK2/cyclin A2 turned out to be 59.3. For the same molecule, in the data set on MCF7, the GI% came to 77.1%.
The corresponding values for `O=C1NN=C(Nc2ccccc2)C1=NNc1ccccc1` [Compound 2a, 5-(Phenylamino)-4-(2-phenylhydrazono)-2,4-dihydro-3H-pyrazol-3-one] are 215 to 217 °C, 51.4 and 73.8%.
As to `O=C(NC1CCNCC1)c1n[nH]cc1NC(=O)c1c(Cl)cccc1Cl` [AT7519 (I), N-(4-Piperidinyl)-4-(2,6dichlorobenzoylamino)-1H-pyrazole-3-carboxamide], the IC50 in data set [2] is […].
Turning to `CC(=O)N(C(C)=O)c1[nH]nc(Nc2ccccc2)c1C#N` [Compound 10, N-acetyl-N-(4-cyano-3-(phenylamino)-1H-pyrazol-5-yl)acetamide], the melting point lay in the range of 173 to 175 °C. Moreover, the Relative activity on CDK2/cyclin A2 stood at 49.9.
The molecule `N#Cc1c(Nc2ccccc2)n[nH]c1NCc1ccccc1` [Compound 9, 5-(benzylamino)-3-(phenylamino)-1H-pyrazole-4-carbonitrile] showed a melting point of 136 to 137 °C. Besides, at CDK2/cyclin A2, the percentage enzyme activity came to 14.5%, the IC50 is 960 nM and the Relative activity was 14.5. In the data set with CCRF-CEM, the GI% is reported as 81.65%. Moreover, the GI% with MALME-3M is 78.10%. The molecule further came in with a GI% with SK-MEL-2 of 79.33%. In the data set with T-47D, this molecule registered a GI% of 82.76%. In addition, the “mean GI%” value in the data set on NCI 60 cancer cell lines was determined as 65.90%. For the same molecule, the IC50 in the data set on HCT-116 cell line is 10000 nM. Moreover, in the data set with CDK2 [3], the “expression of CDK-2 (western blot)” value is reported as “inhibitions in the expression of CDK-2”. The same molecule yielded an IC50 in the data set “in vitro” of 56800 nM.
In turn, “5-((4-Methoxybenzylidene)amino)-3-(phenylamino)-1H-pyrazole-4-carbonitrile [Compound 7c]” returned a Relative activity at CDK2/cyclin A2 of 68.6. Moreover, the GI% in the data set on MCF7 worked out at 79.41%.
Turning to `CC(=O)c1ccc(NN=C2C(=O)NN=C2Nc2ccccc2)cc1` [Compound 2g, 4-(2-(4-Acetylphenyl)hydrazono)-5-(phenylamino)-2,4-dihydro-3H-pyrazol-3-one], the melting point was 265 to 267 °C. The same molecule registered a Relative activity on CDK2/cyclin A2 of 59.5.
`COc1ccc(C(=O)Nc2[nH]nc(Nc3ccccc3)c2C#N)cc1` [Compound 8b, N-(4-Cyano-3-(phenylamino)-1H-pyrazol-5-yl)-4-methoxybenzamide]: the melting point is 233 to 235 °C. Besides, at CDK2/cyclin A2, the IC50 came to 18700 nM and the Relative activity stood at 27.1.
As for `N#Cc1c(Nc2ccccc2)n[nH]c1N=Cc1ccc(F)cc1` [Compound 7a, 5-((4-Fluorobenzylidene)amino)-3-(phenylamino)-1H-pyrazole-4-carbonitrile], the melting point lay in the range of 265 to 267 °C. At CDK2/cyclin A2, the IC50 is 2000 nM and 2010 nM; the Relative activity was 42.3.
